Data reported in ChEMBL document CHEMBL1201862, “PubChem BioAssay data set” (2004).
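48-hour exposure; five concentrations; linearly interpolated endpoints. At the GI50, growth is halved.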 Calls of active or inactive are those of the source. Rule as the data show it: active = GI50 up to about 1.1 µM and inactive = higher.

Experiments:
Assay in all cases: NCI anticancer screen, dose series, 48 h
HT-29 = tested on: HT-29
RXF 393 = tested on: RXF 393
HOP-62 = tested on: HOP-62
DU-145 = tested on: DU-145
COLO 205 = tested on: COLO 205
NCI/ADR-RES = tested on: NCI/ADR-RES
MDA-MB-231 = tested on: MDA-MB-231
UO-31 = tested on: UO-31
ACHN = tested on: ACHN
SK-MEL-5 = tested on: SK-MEL-5
SK-MEL-28 = tested on: SK-MEL-28
MCF7 = tested on: MCF7
SF-539 = tested on: SF-539
NCI-H23 = tested on: NCI-H23
HCT-15 = tested on: HCT-15
PC-3 = tested on: PC-3
SNB-75 = tested on: SNB-75
OVCAR-3 = tested on: OVCAR-3
LOX IMVI = tested on: LOX IMVI
HL-60 = tested on: HL-60

Structure (SMILES)	GI50 (HT-29)	GI50 (RXF 393)	GI50 (HOP-62)	GI50 (DU-145)	GI50 (COLO 205)	GI50 (NCI/ADR-RES)	GI50 (MDA-MB-231)	GI50 (UO-31)	GI50 (ACHN)	GI50 (SK-MEL-5)	GI50 (SK-MEL-28)	GI50 (MCF7)	GI50 (SF-539)	GI50 (NCI-H23)	GI50 (HCT-15) [µM]	GI50 (PC-3)	GI50 (SNB-75)	GI50 (OVCAR-3)	GI50 (LOX IMVI)	GI50 (HL-60)
Sc1ncnc2c1ncn2Cc1ccco1	> 100 µM (inactive)	> 100 µM (inactive)	> 100 µM (inactive)	> 100 µM (inactive)	> 100 µM (inactive)	> 100 µM (inactive)	> 100 µM (inactive)	> 100 µM (inactive)	> 100 µM (inactive)	> 100 µM (inactive)	> 100 µM (inactive)	> 100 µM (inactive)	> 100 µM (inactive)	> 100 µM (inactive)	> 100	> 100 µM (inactive)	> 100 µM (inactive)	> 100 µM (inactive)	> 100 µM (inactive)	
CN(C)c1ccc(/C=C2\Oc3ccccc3C2=O)cc1	> 100 µM (inactive)	> 100 µM (inactive)	> 100 µM (inactive)	> 100 µM (inactive)	> 100 µM (inactive)	68.5 µM (inactive)	> 100 µM (inactive)	52.2 µM (inactive)	> 100 µM (inactive)	> 100 µM (inactive)	> 100 µM (inactive)	54.1 µM (inactive)	> 100 µM (inactive)	> 100 µM (inactive)	> 100	> 100 µM (inactive)	> 100 µM (inactive)	> 100 µM (inactive)		> 100 µM (inactive)
C/C(Cl)=N\OC(=O)Nc1ccc(C)cc1	22.9 µM (inactive)		46.9 µM (inactive)	> 10 µM (inactive)	16.2 µM (inactive)	19.7 µM (inactive)	20.3 µM (inactive)	17.4 µM (inactive)	15.7 µM (inactive)	17.7 µM (inactive)	14.5 µM (inactive)	11.9 µM (inactive)	18.7 µM (inactive)	20.7 µM (inactive)	15.4	15.8 µM (inactive)	12.8 µM (inactive)	18 µM (inactive)	17.5 µM (inactive)	2.22 µM (inactive)
OC1C2CN3CCN(C2)CC1(c1ccccc1)C3 (stereo not given)	> 100 µM (inactive)	> 100 µM (inactive)	> 100 µM (inactive)	> 100 µM (inactive)	> 100 µM (inactive)	> 100 µM (inactive)	> 100 µM (inactive)	> 100 µM (inactive)	> 100 µM (inactive)	> 100 µM (inactive)	> 100 µM (inactive)	> 100 µM (inactive)	> 100 µM (inactive)	> 100 µM (inactive)		> 100 µM (inactive)	> 100 µM (inactive)	> 100 µM (inactive)	> 100 µM (inactive)	> 100 µM (inactive)
COC(=O)C(=O)Nc1cc2c3c(c1)Oc1cccc4c1C3(C)c1c(cccc1O2)O4		18.7 µM (inactive)	> 100 µM (inactive)	> 44.7 µM (inactive)	> 31.6 µM (inactive)	6.56 µM (inactive)	> 100 µM (inactive)	98.6 µM (inactive)	> 82 µM (inactive)	> 100 µM (inactive)	> 100 µM (inactive)	> 100 µM (inactive)	33 µM (inactive)	> 100 µM (inactive)	97.5	97.1 µM (inactive)	> 100 µM (inactive)	34.2 µM (inactive)	71.3 µM (inactive)	0.105 µM (active)
O=C1c2ccccc2-n2nnnc2C2CSCN12 (stereo not given)	> 100 µM (inactive)	> 100 µM (inactive)	> 100 µM (inactive)	> 100 µM (inactive)	> 100 µM (inactive)	> 100 µM (inactive)	> 100 µM (inactive)	> 100 µM (inactive)	> 100 µM (inactive)	> 100 µM (inactive)	> 100 µM (inactive)	> 100 µM (inactive)			> 100	> 100 µM (inactive)	> 100 µM (inactive)	> 100 µM (inactive)	> 100 µM (inactive)	
CC(C)(C)O/N=C/c1cc(NC(=S)c2ccsc2)ccc1Cl	13.3 µM (inactive)	14.1 µM (inactive)	16 µM (inactive)	5.37 µM (inactive)	14.9 µM (inactive)	11.8 µM (inactive)	16.4 µM (inactive)	12.2 µM (inactive)		3.99 µM (inactive)	16.7 µM (inactive)	11.2 µM (inactive)	18 µM (inactive)	7.41 µM (inactive)	14.6	13 µM (inactive)	23.6 µM (inactive)	14.9 µM (inactive)	16 µM (inactive)	17.2 µM (inactive)
CC(NO)/C(=N/O)c1ccco1 (stereo not given)	> 10 µM (inactive)	> 10 µM (inactive)	> 10 µM (inactive)	> 10 µM (inactive)	> 10 µM (inactive)	> 10 µM (inactive)	> 10 µM (inactive)	> 10 µM (inactive)	> 10 µM (inactive)			> 10 µM (inactive)		> 10 µM (inactive)	> 10	> 10 µM (inactive)		> 10 µM (inactive)		> 10 µM (inactive)
CCCNC(=O)OCc1c(COC(=O)NCCC)c(-c2ccc(Cl)c(Cl)c2)n2c1CCC2	4.12 µM (inactive)	2.35 µM (inactive)	6.01 µM (inactive)	7 µM (inactive)	3.64 µM (inactive)	3.89 µM (inactive)	4.84 µM (inactive)	2.86 µM (inactive)	2.01 µM (inactive)	5.98 µM (inactive)		5.75 µM (inactive)	3 µM (inactive)	5.93 µM (inactive)	4.18	8.59 µM (inactive)		14 µM (inactive)	3.78 µM (inactive)	2.64 µM (inactive)
COc1ccc(/C=C/c2cc(O)cc(OC3OC(CO)C(O)C(O)C3O)c2)cc1O (stereo not given)	> 100 µM (inactive)	> 100 µM (inactive)	37 µM (inactive)	37.8 µM (inactive)	> 100 µM (inactive)	94 µM (inactive)	> 100 µM (inactive)	19.2 µM (inactive)	14.8 µM (inactive)	> 100 µM (inactive)	> 100 µM (inactive)	> 100 µM (inactive)	57.1 µM (inactive)		6.01	49.2 µM (inactive)	> 100 µM (inactive)	> 100 µM (inactive)	> 100 µM (inactive)	> 100 µM (inactive)
CC(C)(C)OC(=O)CC(NC(=O)OC(C)(C)C)C(=O)NC(C(=O)O)C(O)c1ccccc1 (stereo not given)	75.3 µM (inactive)	57.9 µM (inactive)	> 100 µM (inactive)	> 100 µM (inactive)	> 100 µM (inactive)	> 100 µM (inactive)	65.2 µM (inactive)	> 100 µM (inactive)	> 100 µM (inactive)	56 µM (inactive)	> 100 µM (inactive)	37.6 µM (inactive)	> 100 µM (inactive)	> 100 µM (inactive)	> 100	91.4 µM (inactive)	> 100 µM (inactive)	> 100 µM (inactive)	> 100 µM (inactive)	
Cc1ccc2c(c1)C(=O)C1(C2)Cc2ccc(C)cc2C1=O	> 100 µM (inactive)	> 100 µM (inactive)	> 100 µM (inactive)	> 100 µM (inactive)		> 100 µM (inactive)	> 100 µM (inactive)	> 100 µM (inactive)	> 100 µM (inactive)	> 100 µM (inactive)		> 100 µM (inactive)	> 100 µM (inactive)	> 100 µM (inactive)	> 100	> 100 µM (inactive)	> 100 µM (inactive)	> 100 µM (inactive)	> 100 µM (inactive)	> 100 µM (inactive)
N#CC(C(=O)O)C(c1c(Cl)cccc1Cl)C(C#N)C(=O)O (stereo not given)	> 100 µM (inactive)		> 100 µM (inactive)	> 100 µM (inactive)	> 100 µM (inactive)	> 100 µM (inactive)	> 100 µM (inactive)	> 100 µM (inactive)	> 100 µM (inactive)	> 100 µM (inactive)	> 100 µM (inactive)	> 100 µM (inactive)	> 100 µM (inactive)	> 100 µM (inactive)	> 100	> 100 µM (inactive)		> 100 µM (inactive)	> 100 µM (inactive)	> 100 µM (inactive)
CCCNC(=O)NNC(=O)c1c[nH]c2nc(C)ccc2c1=O	> 100 µM (inactive)	> 100 µM (inactive)	> 100 µM (inactive)	> 100 µM (inactive)	> 100 µM (inactive)	> 100 µM (inactive)	> 100 µM (inactive)	> 100 µM (inactive)	> 100 µM (inactive)	> 100 µM (inactive)	> 100 µM (inactive)	> 100 µM (inactive)		> 100 µM (inactive)	> 100	> 100 µM (inactive)		> 100 µM (inactive)	> 100 µM (inactive)	> 100 µM (inactive)
O=C(CCc1cccc(O)c1)NCCCNC(=O)CCc1cccc(O)c1	> 100 µM (inactive)	> 100 µM (inactive)	> 100 µM (inactive)	> 100 µM (inactive)	> 100 µM (inactive)	> 100 µM (inactive)	> 100 µM (inactive)	> 100 µM (inactive)	> 100 µM (inactive)	> 100 µM (inactive)	> 100 µM (inactive)	> 100 µM (inactive)	> 100 µM (inactive)	> 100 µM (inactive)	> 100	> 100 µM (inactive)		> 100 µM (inactive)	> 100 µM (inactive)	< 0.01 µM (active)
